Experimental data taken from patent US20260209260A1, “VECTORIZED NHC IRIDIUM(III) COMPLEXES AND USE THEREOF IN PHOTODYNAMIC THERAPY AND/OR DIAGNOSTIC” (CENTRE NATIONAL DE LA RECHERCHE SCIENTIFIQUE, priority 2022, published 2026).
Several values for one entry are separate records, joined by “and”; a condition that tells them apart may be missing. Equal entries are not always repeated. Where two headings read alike, the source gives them in different places. Marks after values point to notes of the source that are not given here.

What was measured:
[1] = Luminescence emission spectra and quantum yield; assay type: physicochemical; settings: for λem: CH2Cl2, room temperature, λexc 365 nm or 470 nm; for ΦP emission phosphorescence quantum yield: room temperature, reference POPOP in hexane or rhodamine B in ethanol
How it was run: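 Relative luminescence quantum yields (Demas–Crosby) were derived from integrated emission areas of sample versus reference standard, with solvent refractive-index correction, on RT solutions. Emission spectra, fluorescence and phosphorescence, were taken for the complexes in CH2Cl2 at room temperature.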

[2] = test system: cancer cells (all tumor cell lines tested); test: Cell viability assay (MTT), summary over the cancer cell lines tested; assay type: cell-based, Human; settings: for PI values, mean over cancer cells / PI values, median over cancer cells: dark vs blue light 458 nm
Method: (§1) Cells were grown in humidified incubators at 37° C. in 5% CO2. Murine MC3T3 osteoblast and NIH-3T3 fibroblast cells-used as non-tumor cell models-were cultured in a-MEM medium and DMEM medium supplemented with 10% fetal bovine serum (FBS) and 1% Penicillin/Streptomycin (P/S) antibiotics, respectively. Human T24 bladder, MGHU3 bladder, Scaber bladder, A549 lung, MCF7 breast, MiaPaCa2 pancreas cancer cells were cultured in DMEM medium supplemented with 10% FBS and 1% P/S antibiotics. […] Human Hela cervix and HepG2 liver cancer cells were cultured EMEM medium supplemented with 10% FBS and 1% P/S antibiotics.
(§2) MTT reagent (3-(4,5-dimethylthiazol-2-yl)-2,5-diphenyltetrazolium bromide) was used to determine cell death as originally described by Mosmann. Briefly, cells were seeded from 5,000 to 10,000 cells/well in 24-well plates (1 mL) depending on the cell type and allowed to attach overnight. The complexes were prepared in DMSO. The concentration of the complexes was calculated based on the elemental composition of the complexes determined by the elemental analyses. All cell viability experiments were carried out with a fixed concentration of 0.1% (v/v) DMSO. After 72 h of treatment, cells were incubated at 37° C. and 5% CO2 with 25 μL of MTT solution (5 mg/ml; Sigma-Aldrich) in 24-well plates for 3 to 4 h. After solubilization with 500 μL of DMSO, formazan was quantified spectrophotometrically with a microplate reader at 570 nm absorbance (ClarioSTAR, BMG LabTech). […] All the results were calculated from data obtained in at least three independent experiments performed in triplicate.
(§3) Two sets of experiments were conducted in parallel for each complex to be studied:
(§4) 1. The cells were incubated with the different complexes (in the dark) for 72 h.
(§5) 2. The cells were incubated for 8 h with the different complexes (in the dark), then irradiated for 10 min, followed by an incubation in the dark up to 72 h.

[3] = UV/Vis absorption spectra; assay type: physicochemical; settings: room temperature, air-saturated CH2Cl2 or CH2Cl2/MeOH (1:1), 50 μM; ε in brackets, sh = shoulder
Method: UV/Vis absorption spectra were recorded at RT on solutions contained in quartz cuvettes (optical pathlength 1 cm, Hellma®) with a PerkinElmer® UV/VIS/NIR spectrophotometer Lambda 950 and a PerkinElmer® detector UV/VIS/NIR Accessory 2D Detector Module.

[4] = Lipophilicity: octanol-water partition coefficient, shake-flask method
How it was run: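 Octanol and water mutually pre-saturated for 24 h; compound ([…] stock in aqueous phase) partitioned against equal volume n-octanol, mixed 15 min, phases separated by centrifugation.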

[5] = test system: NIH-3T3 fibroblast cells (non-tumor); test: Cell viability assay (MTT), dark and blue light; assay type: cell-based, Murine; settings: for Photosensitizing index (PI) NIH-3T3: dark vs blue light 458 nm; for Photosensitizing index (PI): NIH-3T3, dark vs blue light
How it was run: (§6)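 MTT read-out at 570 nm after DMSO solubilization of formazan, 3–4 h MTT at 37 °C, 5% CO2. Treatment lasted 72 h, either fully in the dark or with 10 min irradiation after 8 h of dark incubation. Final DMSO fixed at 0.1% (v/v).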

[6] = test system: MC3T3 osteoblast cells (non-tumor); test: Cell viability assay (MTT), dark and blue light; assay type: cell-based, Murine; settings: for Photosensitizing index (PI) MC3T3: dark vs blue light 458 nm; for Photosensitizing index (PI): MC3T3, dark vs blue light
How it was run: as §6

T24 bladder cancer cells = test: Cell viability assay (MTT), dark and blue light; assay type: cell-based, Human; settings: for Photosensitizing index (PI) T24: dark vs blue light 458 nm
How it was run: as §6

[7] = Emission lifetime measurement; assay type: physicochemical
How it was run: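 Time-correlated single-photon counting with 0.5 ns resolution, using D2-lamp or 405 nm pulsed-diode-laser excitation, gave the lifetimes; quoted uncertainty is 5%.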

[8] = test system: non-tumor cells (NIH-3T3 and MC3T3); test: Cell viability assay (MTT), summary over the non-tumor models; assay type: cell-based, Murine; settings: blue light 458 nm; read-out: GI50 mean over non-tumor models, irradiated
Method: as §1, §2, §3, §4, §5

[9] = 8 h in the dark, blue light 458 nm 10 min, then dark up to 72 h, read-out: GI50 NIH-3T3 Blue
[10] = in the dark, 72 h, read-out: GI50 NIH-3T3 Dark
[11] = 8 h in the dark, blue light 458 nm 10 min, then dark up to 72 h, read-out: GI50 MC3T3 Blue
[12] = in the dark, 72 h, read-out: GI50 MC3T3 Dark
[13] = 8 h in the dark, blue light 458 nm 10 min, then dark up to 72 h, read-out: GI50 T24 Blue
[14] = in the dark, 72 h, read-out: GI50 T24 Dark
[15] = n-octanol/water, shake-flask, mean of at least three determinations
[16] = NIH-3T3, blue light, read-out: GI50
[17] = MC3T3, blue light, read-out: GI50

Compound | λem [1] | ΦP emission phosphorescence quantum yield [1] [%] | PI values, mean over cancer cells [2] [fold] | PI values, median over cancer cells [2] [fold] | λmax (nm) ε (M^−1 · cm^−1) [3] | Log P [4] | GI50 [5, 9] | Photosensitizing index (PI) NIH-3T3 [5] | GI50 [5, 10] [µM] | GI50 [6, 11] [µM] | Photosensitizing index (PI) MC3T3 [6] | GI50 [6, 12] | GI50 (T24 bladder cancer cells; [13]) [µM] | Photosensitizing index (PI) T24 (T24 bladder cancer cells) | GI50 (T24 bladder cancer cells; [14]) [µM] | τ1 emission lifetime [7] [ns] | selectivity for cancer cells over non-tumor cells, in words [2] | GI50 [5, 16] [µM] | Photosensitizing index (PI) [5] | GI50 ([5]; NIH-3T3, dark, read-out: GI50) [µM] | also measured
COC(=O)c1ccc2[n+](c1)[Ir-3]13([c]4ccccc4-2)([c]2ccccc2-c2ccc(C(=O)OC)c[n+]21)[c]1n(CCCNC(=O)CCCC[C@@H]2SC[C@@H]4NC(=O)N[C@@H]42)cc[n+]1-c1cccc[n+]13.F[P-](F)(F)(F)(F)F [I-e] | 511-550 nm | 3.7 | 8.4 | 6.2 | 310 (sh) (19500), 365 (sh) (4690), 432 (4155) nm (M^−1 · cm^−1) | 0.25 ± 0.04 | 135 µM | >1.9 | > 250 | 41.1 | 1.4 | 58.8 µM and 56.8 µM | 5.6 | 17.2 | 96 | 224 |  |  |  |  | 
F[P-](F)(F)(F)(F)F.O=C(CCCC[C@@H]1SC[C@@H]2NC(=O)N[C@@H]21)NCCCn1cc[n+]2[c]1[Ir-3]13([c]4ccccc4-c4ccc5ccccc5[n+]41)([c]1ccccc1-c1ccc4ccccc4[n+]13)[n+]1ccccc1-2 [I-g] | 593-652 nm | <0.1 | 7.5 | 6.0 | 336 (19000), 437 (4600) nm (M^−1 · cm^−1) | 1.26 ± 0.04 | 81.7 µM and 61.7 µM | 1.8 | 110 | 31.4 | 1.8 | 85.2 µM and 55.2 µM | 1.1 | 16.9 | 18.6 | 203 | most selective effects under irradiated conditions |  |  |  | SI (vs NIH-3T3) T24 Blue (T24 bladder cancer cells; blue light 458 nm): 58.1
F[P-](F)(F)(F)(F)F.O=C(CCCC[C@@H]1SC[C@@H]2NC(=O)N[C@@H]21)NCCCn1cc[n+]2[c]1[Ir-3]13([c]4ccccc4-c4c5ccccc5cc[n+]41)([c]1ccccc1-c1c4ccccc4cc[n+]13)[n+]1ccccc1-2 [I-h] |  | 3.0 | 19.0 | 19.3 | 337 (sh) (12520), 352 (sh) (11890), 380 (sh) (8100), 436 (4855) nm (M^−1 · cm^−1) |  | 10.4 µM | 9.7 | 101 | 5 | 8.4 | 42.2 µM | 0.58 | 24.0 | 13.9 | 202 |  |  |  |  | Log P [4, 15]: 0.87 ± 0.02
F[P-](F)(F)(F)(F)F.O=C(CCCC[C@@H]1SC[C@@H]2NC(=O)N[C@@H]21)NCCCn1cc[n+]2[c]1[Ir-3]13([c]4ccccc4-c4sc5ccccc5[n+]41)([c]1ccccc1-c1sc4ccccc4[n+]13)[n+]1ccccc1-2 [I-k] |  | 7.0 | 12.9 | 12.2 | 321 (25835), 372 (sh) (7480), 406 (6130) nm (M^−1 · cm^−1) | 0.87 ± 0.03 | 31.1 µM | 2.4 | 75.8 | 19.2 | 1.3 | 25.8 µM | 0.97 | 19.3 | 18.7 | 322 | most selective effects under irradiated conditions |  |  |  | GI50 values, range over tumor cell lines, dark ([2]; in the dark): little toxicity against tumor cells under dark conditions; SI (vs MC3T3) T24 Dark (T24 bladder cancer cells; dark): 1.4; SI (vs NIH-3T3) T24 Dark (T24 bladder cancer cells; dark): 4.1
F[P-](F)(F)(F)(F)F.O=C(O)CC[C@H](NC(=O)N[C@@H](CCCCNC(=O)CCn1cc[n+]2[c]1[Ir-3]13([c]4ccccc4-c4c5ccccc5cc[n+]41)([c]1ccccc1-c1c4ccccc4cc[n+]13)[n+]1ccccc1-2)C(=O)O)C(=O)O [III-h] | 628 nm | 3.0 |  |  | 336 (sh) (23695), 352 (sh) (22270), 378 (sh) (15520), 435 (9310) nm (M^−1 · cm^−1) |  | 19 µM |  | > 100 | 8.3 |  | 52.4 µM |  |  |  | 215 | most selective effects under irradiated conditions | 19 | >5.3 | > 100 | GI50 [8]: 22.8 µM; Log P [4, 15]: 0.88 ± 0.02; GI50 [6, 17]: 8.3 µM; Photosensitizing index (PI) [6]: 6.3; GI50 ([6]; MC3T3, dark, read-out: GI50): 52.4 µM
F[P-](F)(F)(F)(F)F.O=C(O)CC[C@H](NC(=O)N[C@@H](CCCCNC(=O)CCn1cc[n+]2[c]1[Ir-3]13([c]4cccc5ccc6ccc[n+]1c6c45)([c]1cccc4ccc5ccc[n+]3c5c14)[n+]1ccccc1-2)C(=O)O)C(=O)O [III-i] | 548 nm |  |  |  | 317 (19830), 412 (5510) nm (M^−1 · cm^−1) | 0.60 ± 0.01 |  |  | > 100 |  |  | 250 µM |  |  |  | 227 |  | 55.8 | >1.8 | > 100 | GI50 [6, 17]: 40.6 µM; Photosensitizing index (PI) [6]: 6.2; GI50 ([6]; MC3T3, dark, read-out: GI50): 250 µM
F[P-](F)(F)(F)(F)F.O=C(O)CC[C@H](NC(=O)N[C@@H](CCCCNC(=O)CCn1cc[n+]2[c]1[Ir-3]13([c]4c(sc5ccccc45)-c4cccc[n+]41)([c]1c(sc4ccccc14)-c1cccc[n+]13)[n+]1ccccc1-2)C(=O)O)C(=O)O [III-j] |  | 3.0 |  |  | 324 (26900), 343 (sh)^b (24560), 428 (10800) nm (M^−1 · cm^−1) | −0.38 ± 0.03 | 10.8 µM |  | > 100 | 12.5 |  |  |  |  |  | 197 |  | 10.8 | >9.3 | > 100 | GI50 [6, 17]: 12.5 µM; Photosensitizing index (PI) [6]: >20; GI50 ([6]; MC3T3, dark, read-out: GI50): > 250 µM
F[P-](F)(F)(F)(F)F.O=C(O)CC[C@H](NC(=O)N[C@@H](CCCCNC(=O)CCn1cc[n+]2[c]1[Ir-3]13([c]4ccccc4-c4sc5ccccc5[n+]41)([c]1ccccc1-c1sc4ccccc4[n+]13)[n+]1ccccc1-2)C(=O)O)C(=O)O [III-k] |  | 6.1 |  |  | 321 (39070), 370 (sh) (12560), 406 (10170) nm (M^−1 · cm^−1) | −0.14 ± 0.01 | 30 µM |  | > 100 | 33.8 |  | 95.1 µM |  |  |  | 649 | most selective effects under irradiated conditions | 30 | >3.3 | > 100 | GI50 [8]: 22.8 µM; GI50 [6, 17]: 33.8 µM; Photosensitizing index (PI) [6]: 2.8; GI50 ([6]; MC3T3, dark, read-out: GI50): 95.1 µM
